In ChEMBL document CHEMBL1201862, “PubChem BioAssay data set” (2004):
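Grown in 96-well plates, cells were treated for 48 hours with each compound at five concentrations. Insufficient inhibition: endpoint recorded as highest concentration tested. GI50 marks 50% less growth.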 The source made the active and inactive calls. Rule as the data show it: active = GI50 up to about 1.1 µM and inactive = higher.

What was measured:
Assay in all cases: DTP human tumour cell line panel, 48 h
786-0 = system: 786-0
A498 = system: A498
A549 = system: A549
ACHN = system: ACHN
CCRF-CEM = system: CCRF-CEM
COLO 205 = system: COLO 205
DLD-1 = system: DLD-1
DMS-114 = system: DMS-114
DMS-273 = system: DMS-273
EKVX = system: EKVX
HCC 2998 = system: HCC 2998
HCT-15 = system: HCT-15
HL-60 = system: HL-60
HOP-18 = system: HOP-18
HT-29 = system: HT-29
IGROV-1 = system: IGROV-1
K562 = system: K562
KM12 = system: KM12
LOX IMVI = system: LOX IMVI
LXFL 529 = system: LXFL 529
M14 = system: M14
M19-MEL = system: M19-MEL
MOLT-4 = system: MOLT-4
Malme-3M = system: Malme-3M
NCI-H23 = system: NCI-H23
NCI-H460 = system: NCI-H460
OVCAR-3 = system: OVCAR-3
OVCAR-4 = system: OVCAR-4
OVCAR-5 = system: OVCAR-5
OVCAR-8 = system: OVCAR-8
RPMI-8226 = system: RPMI-8226
RXF 393 = system: RXF 393
RXF 631 = system: RXF 631
SF-268 = system: SF-268
SF-295 = system: SF-295
SF-539 = system: SF-539
SK-MEL-28 = system: SK-MEL-28
SK-MEL-5 = system: SK-MEL-5
SK-OV-3 = system: SK-OV-3
SN12C = system: SN12C
SNB-19 = system: SNB-19
SNB-75 = system: SNB-75
SNB-78 = system: SNB-78
SW-620 = system: SW-620
TK-10 = system: TK-10
U-251 = system: U-251
UACC-62 = system: UACC-62
UO-31 = system: UO-31
CAKI-1 = system: CAKI-1
HCT-116 = system: HCT-116
HOP-62 = system: HOP-62
HOP-92 = system: HOP-92
KM-20L2 = system: KM-20L2
NCI-H226 = system: NCI-H226
NCI-H522 = system: NCI-H522
SK-MEL-2 = system: SK-MEL-2
SR = system: SR
UACC-257 = system: UACC-257
XF498 = system: XF498

Measured: GI50

CC(C)(C)OC1=C(OC(C)(C)C)C(O)(c2ccccc2)C1=O (stereo not drawn)
> 100 µM: HCT-15
inactive: 786-0 > 100 µM | A498 > 100 µM | A549 > 100 µM | ACHN > 100 µM | CCRF-CEM > 100 µM | COLO 205 > 100 µM | DLD-1 > 100 µM | DMS-114 > 100 µM | DMS-273 > 100 µM | EKVX > 100 µM | HCC 2998 > 100 µM | HL-60 > 100 µM | HOP-18 > 100 µM | HT-29 > 100 µM | IGROV-1 > 100 µM | K562 > 100 µM | KM12 > 100 µM | LOX IMVI > 100 µM | LXFL 529 > 100 µM | M14 > 100 µM | M19-MEL > 100 µM | MOLT-4 > 100 µM | Malme-3M > 100 µM | NCI-H23 > 100 µM | NCI-H460 > 100 µM | OVCAR-3 > 100 µM | OVCAR-4 > 100 µM | OVCAR-5 > 100 µM | OVCAR-8 > 100 µM | RPMI-8226 > 100 µM | RXF 393 > 100 µM | RXF 631 > 100 µM | SF-268 > 100 µM | SF-295 > 100 µM | SF-539 > 100 µM | SK-MEL-28 > 100 µM | SK-MEL-5 > 100 µM | SK-OV-3 > 100 µM | SN12C > 100 µM | SNB-19 > 100 µM | SNB-75 > 100 µM | SNB-78 > 100 µM | SW-620 > 100 µM | TK-10 > 100 µM | U-251 > 100 µM | UACC-62 > 100 µM | UO-31 > 100 µM

Nc1nc(Cl)cc(NCCCCCCNc2cc(Cl)nc(N)n2)n1
inactive: 786-0 > 100 µM | A549 60.7 µM | ACHN 2.88 µM | CAKI-1 27.7 µM | CCRF-CEM 59.6 µM | COLO 205 > 100 µM | DLD-1 > 100 µM | DMS-273 > 100 µM | EKVX > 100 µM | HCC 2998 > 100 µM | HCT-116 30.7 µM | HL-60 15.2 µM | HOP-18 > 100 µM | HOP-62 > 100 µM | HOP-92 25.4 µM | HT-29 > 100 µM | IGROV-1 > 100 µM | K562 28.6 µM | KM-20L2 > 100 µM | KM12 > 100 µM | LOX IMVI 20.8 µM | LXFL 529 32.7 µM | M14 > 100 µM | M19-MEL > 100 µM | MOLT-4 48.2 µM | NCI-H226 25.8 µM | NCI-H23 54.5 µM | NCI-H460 > 100 µM | NCI-H522 27.7 µM | OVCAR-3 34 µM | OVCAR-4 88.9 µM | OVCAR-5 16 µM | OVCAR-8 > 100 µM | RPMI-8226 45.3 µM | RXF 393 > 100 µM | RXF 631 > 100 µM | SF-295 28.1 µM | SF-539 > 100 µM | SK-MEL-2 87.9 µM | SK-MEL-5 13.1 µM | SK-OV-3 > 100 µM | SN12C > 100 µM | SNB-19 > 100 µM | SNB-75 > 100 µM | SR 42 µM | SW-620 > 100 µM | TK-10 > 100 µM | U-251 > 100 µM | UACC-257 59.6 µM | UACC-62 12 µM | UO-31 > 100 µM | XF498 30.6 µM
78.9 µM: HCT-15

Nc1ncnc2sc(Nc3ccccc3)nc12
inactive: 786-0 26.5 µM | A549 > 100 µM | ACHN 12.3 µM | CAKI-1 55.5 µM | COLO 205 > 100 µM | DLD-1 > 100 µM | DMS-273 > 100 µM | HCC 2998 > 100 µM | HL-60 2.54 µM | HOP-62 81.7 µM | HOP-92 77.1 µM | HT-29 7.28 µM | IGROV-1 32.2 µM | K562 22.6 µM | KM-20L2 43.8 µM | KM12 > 100 µM | LOX IMVI 99.3 µM | LXFL 529 > 100 µM | M14 92 µM | M19-MEL > 100 µM | MOLT-4 > 100 µM | Malme-3M > 100 µM | NCI-H226 > 100 µM | NCI-H23 48.3 µM | NCI-H460 > 100 µM | NCI-H522 28 µM | OVCAR-3 > 100 µM | OVCAR-4 93.3 µM | OVCAR-5 > 100 µM | OVCAR-8 > 100 µM | RPMI-8226 > 100 µM | RXF 631 9.86 µM | SF-268 > 100 µM | SF-295 > 100 µM | SF-539 > 100 µM | SK-MEL-28 > 100 µM | SK-MEL-2 > 100 µM | SK-OV-3 46.2 µM | SN12C 80.4 µM | SNB-19 > 100 µM | SNB-75 29.6 µM | SNB-78 > 100 µM | SR 38 µM | SW-620 > 100 µM | TK-10 46.9 µM | U-251 56.6 µM | UACC-257 > 100 µM | UACC-62 > 100 µM | UO-31 45.8 µM | XF498 > 100 µM
> 100 µM: HCT-15

N#CC1CC2(CCN1C(=O)c1ccccc1)OCCO2 (stereo not drawn)
inactive: 786-0 > 100 µM | A498 > 100 µM | A549 > 100 µM | ACHN > 100 µM | CAKI-1 > 100 µM | CCRF-CEM > 100 µM | COLO 205 > 100 µM | DLD-1 > 100 µM | DMS-114 > 100 µM | DMS-273 > 100 µM | EKVX > 100 µM | HCC 2998 > 100 µM | HCT-116 > 100 µM | HL-60 > 100 µM | HOP-18 > 100 µM | HOP-62 > 100 µM | HOP-92 > 100 µM | HT-29 > 100 µM | IGROV-1 > 100 µM | K562 > 100 µM | KM-20L2 > 100 µM | KM12 > 100 µM | LXFL 529 > 100 µM | M14 > 100 µM | M19-MEL > 100 µM | MOLT-4 > 100 µM | Malme-3M > 100 µM | NCI-H226 > 100 µM | NCI-H23 > 100 µM | NCI-H460 > 100 µM | OVCAR-3 > 100 µM | OVCAR-4 > 100 µM | OVCAR-5 > 100 µM | OVCAR-8 > 100 µM | RPMI-8226 > 100 µM | RXF 393 > 100 µM | SF-268 > 100 µM | SF-295 > 100 µM | SF-539 > 100 µM | SK-MEL-2 > 100 µM | SK-MEL-5 > 100 µM | SK-OV-3 > 100 µM | SN12C > 100 µM | SNB-19 > 100 µM | SNB-75 > 100 µM | SNB-78 > 100 µM | SR > 100 µM | SW-620 > 100 µM | TK-10 > 100 µM | U-251 > 100 µM | UACC-257 > 100 µM | UACC-62 > 100 µM | UO-31 > 100 µM | XF498 > 100 µM
> 100 µM: HCT-15
active: NCI-H522 0.308 µM

Fc1ccccc1C1SCc2nc3ccccc3n21 (stereo not drawn)
inactive: 786-0 > 100 µM | A498 9.62 µM | A549 36.5 µM | ACHN 38.1 µM | CAKI-1 44.8 µM | CCRF-CEM 43.1 µM | COLO 205 77.3 µM | DLD-1 53.7 µM | DMS-114 24.4 µM | DMS-273 31.3 µM | EKVX 37.5 µM | HCC 2998 75.2 µM | HCT-116 38.5 µM | HL-60 11.9 µM | HOP-92 19.7 µM | HT-29 > 100 µM | IGROV-1 60.5 µM | K562 16.3 µM | KM12 89.9 µM | LXFL 529 37.6 µM | M19-MEL 51.9 µM | MOLT-4 30.4 µM | Malme-3M 55.3 µM | NCI-H226 76.7 µM | NCI-H23 33.2 µM | NCI-H460 47.9 µM | NCI-H522 28 µM | OVCAR-3 38.4 µM | OVCAR-5 41.5 µM | OVCAR-8 49.4 µM | RPMI-8226 25.5 µM | RXF 393 92 µM | RXF 631 31.3 µM | SF-268 69.8 µM | SF-295 41.8 µM | SF-539 > 100 µM | SK-MEL-28 > 100 µM | SK-MEL-2 76.4 µM | SK-MEL-5 18.8 µM | SK-OV-3 34.8 µM | SN12C 79.6 µM | SNB-19 86.7 µM | SNB-75 72.8 µM | SNB-78 > 100 µM | SR 38.1 µM | SW-620 > 100 µM | TK-10 > 100 µM | UACC-257 33.7 µM | UACC-62 35 µM | UO-31 24.8 µM
